{
  "source": "PubChem BioAssay AID651892",
  "about": "(Broad Institute, 2012)",
  "test_system": "L. donovani axenic amastigotes, Alamar Blue fluorescence, 72 h",
  "assay": "antileishmanial activity on axenic amastigotes – plate reader, dry powder, dose response (AID 651892)",
  "note": "Calls of active or inactive are those of the source.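 Rule for the calls: active = IC50 below three times the IC50 of the reference antileishmanial control drug; inactive = the rest.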",
  "data": [
    {"smiles": "C[C@@H]1CN([C@@H](C)CO)C(=O)c2cccc(NC(=O)c3ccncc3)c2O[C@H]1CN(C)Cc1ccc(Oc2ccccc2)cc1", "values": [
      {"measurement": "IC50", "value": "40.5 µM (inactive)"}
    ]}
  ]
}
